These results are taken from patent US9409952B2, “Peptide-compound cyclization method” (Chugai Seiyaku Kabushiki Kaisha, priority 2011, dated 2016).

The structures appear in SMILES notation. Like-named read-outs stand apart in the source and are kept apart here. Starred links: 1 amine or outer side, 2 acyl side, 3 side chain; linkers in the order of their positions; H or OH if unused. Positions of bridges follow the written chain, without caps; N, C: chain ends. Non-standard residues stand in square brackets, D forms with d. Residues, ends and D or L forms follow the SMILES beside them. *: point of attachment. Met(O2) = CS(=O)(=O)CC[C@H](N)C(=O)O; NMeF = CN[C@@H](Cc1ccccc1)C(=O)O; NMeGABA = CN(CCCC(=O)[*:2])[*:1]; NMeI = CC[C@H](C)[C@H](NC)C(=O)O; NMeβAla = CN(CCC(=O)[*:2])[*:1]; NMeL = CN[C@@H](CC(C)C)C(=O)O; NMeV = CN[C@H](C(=O)O)C(C)C; NMeA = CN[C@@H](C)C(=O)O; Piperidide = C1CCN(*)CC1; dNMeA = CN[C@H](C)C(=O)O; Sar = CNCC(=O)O

Data set [1] in a line: PAMPA (parallel artificial membrane permeability assay). The class given is in vitro ADME. Particulars: PAMPA. The method, boiled down: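 Artificial membrane was 10% (w/v) egg lecithin plus 0.5% (w/v) cholesterol in dodecane on a PVDF filter. A 10 mM DMSO stock was added at 0.5% (v/v) to donor buffer (50 mM MOPSO, pH 6.5, 5.0% glycocholic acid). After 18 h at 37 °C, LC/MS or LC/UV gave donor and acceptor levels for Pe.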
On the technique in general: PAMPA measures passive passage across an artificial lipid membrane.

The nature of data set [2]: Metabolic stability in human hepatic microsome. The class given is in vitro ADME. Conditions: microsomes.
Setting [3] is: membrane permeation rate (Pe), 50 mM MOPSO buffer pH 6.5 with 5.0% glycocholic acid, 37° C., 18 hours, read-out: iPAMPA Pe.
[4] abbreviates: pH 7.4, human hepatic microsome, NADPH(+), read-out: CL NADPH(+).

In data set [1] (pH 6.5), `CC[C@H](C)[C@H]1C(=O)N[C@@H](C)C(=O)N[C@H](C(=O)N2CCCCC2)CC(=O)N(C)[C@@H](C)C(=O)N[C@@H]([C@@H](C)O)C(=O)N(C)[C@@H](C)C(=O)N(C)[C@@H](C(C)C)C(=O)N[C@@H](Cc2ccccc2)C(=O)N(C)CC(=O)N(C)[C@@H](CC(C)C)C(=O)N1C` [DP-73] ([NMeA]T[NMeA][NMeV]F[Sar][NMeL][NMeI]AD-Piperidide; lactam N-10) registered a Papp at 18 hours, 50 µM of 5.4 ×10⁻⁶ cm/s. This compound also had a microsomal CLint at 1 uM in data set [2] (human, pH 7.4, CL NADPH(+)) of 30 µL/min/mg.
Turning to `CC[C@H](C)[C@H]1C(=O)N(C)[C@@H](C)C(=O)N[C@@H](Cc2ccccc2)C(=O)N[C@@H]([C@@H](C)O)C(=O)N[C@@H](Cc2ccccc2)C(=O)N(C)[C@@H](CC(C)C)C(=O)N2CCC[C@H]2C(=O)N[C@H](C(=O)N2CCCCC2)CC(=O)N[C@@H](C)C(=O)N[C@@H](CC(C)C)C(=O)N(C)CC(=O)N[C@@H](CC(C)C)C(=O)N1C` [DP-7] (AL[Sar]L[NMeI][NMeA]FTF[NMeL]PD-Piperidide; lactam N-12), the Papp at 18 hours, 50 µM in data set [1] (setting [3]) turned out to be 10 ×10⁻⁶ cm/s. Moreover, the microsomal CLint at 1 uM in data set [2] (setting [4]) was 48 µL/min/mg.
The like results for `CC(C)C[C@H]1C(=O)N[C@@H]([C@@H](C)O)C(=O)NCC(=O)N[C@@H](C(C)C)C(=O)N[C@H](C(=O)N(C)[C@@H](Cc2ccccc2)C(=O)N[C@@H](C)C(=O)N2CCCCC2)CC(=O)N(C)[C@H](C)C(=O)N(C)[C@@H](C(C)C)C(=O)N[C@@H](Cc2ccccc2)C(=O)N(C)[C@@H](Cc2ccccc2)C(=O)N(C)[C@@H](C)C(=O)N1C` [DP-356] ([dNMeA][NMeV]F[NMeF][NMeA][NMeL]TGVD[NMeF]A-Piperidide; lactam N-10) were, in that order, 34 ×10⁻⁶ cm/s and 66 µL/min/mg.
The compound `CC[C@H](C)[C@H](NC(=O)[C@@H]1CC(=O)N[C@@H](C)C(=O)N[C@@H]([C@@H](C)O)C(=O)N[C@@H](CC(C)C)C(=O)N2CCC[C@H]2C(=O)N[C@@H](Cc2ccccc2)C(=O)N(C)[C@@H](Cc2ccccc2)C(=O)N(C)[C@@H](C(C)C)C(=O)N[C@@H](C)C(=O)N(C)[C@@H](CC(C)C)C(=O)N1)C(=O)N1CCCCC1` [DP-44] (ATLPF[NMeF][NMeV]A[NMeL]DI-Piperidide; lactam N-10) had a Papp at 18 hours, 50 µM in data set [1] (pH 6.5) of 20 ×10⁻⁶ cm/s. Also, the microsomal CLint at 1 uM in data set [2] (human, pH 7.4, CL NADPH(+)) was 59 µL/min/mg.
For `CC[C@H](C)[C@@H]1NC(=O)[C@H](C(C)C)N(C)C(=O)[C@@H](C)N(C)C(=O)C[C@@H](C(=O)N2CCCCC2)NC(=O)[C@H](CC(C)C)NC(=O)[C@H](Cc2ccccc2)N(C)C(=O)[C@H](CC(C)C)N(C)C(=O)[C@H](Cc2ccccc2)NC(=O)[C@H]([C@@H](C)O)NC(=O)[C@H](CC(C)C)NC1=O` [DP-339] ([dNMeA][NMeV]ILTF[NMeL][NMeF]LD-Piperidide; lactam N-10), the Papp at 18 hours, 50 µM in data set [1] (setting [3]) was 18 ×10⁻⁶ cm/s. The microsomal CLint at 1 uM in data set [2] (setting [4]) stood at 213 µL/min/mg.
In the same order, the values of `CC(C)C[C@H]1C(=O)N(C)[C@@H](C)C(=O)N[C@H](C(=O)N(C)[C@@H](Cc2ccccc2)C(=O)N[C@@H](C)C(=O)N2CCCCC2)CC(=O)N(C)CC(=O)N[C@@H](C(C)C)C(=O)N(C)[C@@H](Cc2ccccc2)C(=O)N(C)[C@@H](CC(C)C)C(=O)N[C@@H]([C@@H](C)O)C(=O)N(C)CC(=O)N1C` [DP-388] ([Sar]V[NMeF][NMeL]T[Sar][NMeL][NMeA]D[NMeF]A-Piperidide; lactam N-9) are 11 ×10⁻⁶ cm/s and 41 µL/min/mg.
The like results for `CC(C)C[C@H]1C(=O)NCC(=O)N[C@@H]([C@@H](C)O)C(=O)N(C)[C@@H](C(C)C)C(=O)N[C@@H](Cc2ccccc2)C(=O)N[C@H](C(=O)N(C)[C@@H](Cc2ccccc2)C(=O)N(C)[C@@H](Cc2ccccc2)C(=O)N[C@@H](C)C(=O)N2CCCCC2)CC(=O)N(C)[C@H](C)C(=O)N(C)[C@@H](C)C(=O)N[C@@H](C(C)C)C(=O)N(C)[C@@H](Cc2ccccc2)C(=O)N1C` [DP-452] ([dNMeA][NMeA]V[NMeF][NMeL]GT[NMeV]FD[NMeF][NMeF]A-Piperidide; lactam N-10) were, in that order, 22 ×10⁻⁶ cm/s and 21 µL/min/mg.
For `CC[C@H](C)[C@H]1C(=O)N[C@@H]([C@@H](C)O)C(=O)N[C@@H](CC(C)C)C(=O)N[C@H](C(=O)N2CCCCC2)CC(=O)N[C@H](C)C(=O)N(C)[C@@H](CC(C)C)C(=O)N(C)[C@@H](CC(C)C)C(=O)N(C)[C@@H](Cc2ccccc2)C(=O)N(C)[C@@H](CC(C)C)C(=O)N(C)[C@@H](Cc2ccccc2)C(=O)N[C@@H](C)C(=O)N1C` [DP-228] ([dA][NMeL][NMeL][NMeF][NMeL][NMeF]A[NMeI]TLD-Piperidide; lactam N-11), the Papp at 18 hours, 50 µM in data set [1] (setting [3]) is 5.2 ×10⁻⁶ cm/s. In addition, in data set [2] (setting [4]), the microsomal CLint at 1 uM worked out at 28 µL/min/mg.
For `CC(C)C[C@@H]1NC(=O)CN(C)C(=O)[C@H](CC(C)C)NC(=O)[C@H](C)NC(=O)[C@H](CC(C)C)NC(=O)[C@H](CC(C)C)NC(=O)[C@H](C)N(C)C(=O)C[C@@H](C(=O)N2CCCCC2)NC(=O)[C@H]([C@@H](C)O)NC(=O)[C@H](Cc2ccccc2)NC(=O)[C@H](CC(C)C)NC1=O` [DP-420] ([NMeA]LLAL[Sar]LLFTD-Piperidide; lactam N-11), the Papp at 18 hours, 50 µM in data set [1] (setting [3]) is 10 ×10⁻⁶ cm/s. In data set [2] (setting [4]), the microsomal CLint at 1 uM amounted to 69 µL/min/mg.
For the compound `CC[C@H](C)[C@@H]1NC(=O)[C@H](C)N(C)C(=O)[C@H]([C@@H](C)O)NC(=O)[C@H](C(C)C)N(C)C(=O)[C@H](CC(C)C)NC(=O)[C@H](CC(C)C)N(C)C(=O)CN(C)C(=O)C[C@@H](C(=O)N2CCCCC2)NC(=O)[C@H](C)NC(=O)[C@H](Cc2ccccc2)NC(=O)[C@H](Cc2ccccc2)N(C)C1=O` [DP-245] ([Sar][NMeL]L[NMeV]T[NMeA]I[NMeF]FAD-Piperidide; lactam N-11), in data set [1] (setting [3]), the Papp at 18 hours, 50 µM is 31 ×10⁻⁶ cm/s. The microsomal CLint at 1 uM in data set [2] (setting [4]) was 71 µL/min/mg.
In the same order, the values of `CC[C@H](C)[C@@H]1NC(=O)[C@H]([C@@H](C)O)NC(=O)[C@H](CC(C)C)NC(=O)[C@H](Cc2ccccc2)NC(=O)[C@H](CC(C)C)NC(=O)[C@H](C)NC(=O)C[C@@H](C(=O)N2CCCCC2)NC(=O)[C@H](Cc2ccccc2)NC(=O)[C@H](CC(C)C)NC(=O)[C@H](Cc2ccccc2)N(C)C1=O` [DP-329] (ALFLTI[NMeF]LFD-Piperidide; lactam N-10) are 2.4 ×10⁻⁶ cm/s and 66 µL/min/mg.
In turn, `CC(C)C[C@H]1C(=O)N[C@@H](C(C)C)C(=O)N(C)[C@@H](Cc2ccccc2)C(=O)N(C)[C@@H](CC(C)C)C(=O)N(C)[C@@H](CC(C)C)C(=O)N[C@H](C(=O)N(C)[C@@H](Cc2ccccc2)C(=O)N(C)[C@@H](Cc2ccccc2)C(=O)N[C@@H](C)C(=O)N2CCCCC2)CC(=O)N(C)CCC(=O)N[C@@H]([C@@H](C)O)C(=O)N(C)[C@@H](C)C(=O)N1C` [DP-397] ([NMeβAla]T[NMeA][NMeL]V[NMeF][NMeL][NMeL]D[NMeF][NMeF]A-Piperidide; lactam N-9) came in with a Papp at 18 hours, 50 µM in data set [1] (pH 6.5) of 11 ×10⁻⁶ cm/s. In data set [2] (human, pH 7.4, CL NADPH(+)), this compound registered a microsomal CLint at 1 uM of 92 µL/min/mg.
The like results for `CC(C)C[C@@H]1NC(=O)[C@H](C(C)C)N(C)C(=O)[C@H](Cc2ccccc2)NC(=O)CN(C)C(=O)[C@H]([C@@H](C)O)NC(=O)[C@H](C)N(C)C(=O)[C@H](CC(C)C)N(C)C(=O)[C@@H](C(C)C)NC(=O)C[C@@H](C(=O)N2CCCCC2)NC(=O)[C@H](C)NC(=O)[C@H](CC(C)C)N(C)C1=O` [DP-143] ([dV][NMeL][NMeA]T[Sar]F[NMeV]L[NMeL]AD-Piperidide; lactam N-11) were, in that order, 20 ×10⁻⁶ cm/s and 25 µL/min/mg.
In the same order, the values of `CC[C@H](C)[C@@H]1NC(=O)[C@H](CC(C)C)N(C)C(=O)CCN(C)C(=O)C[C@@H](C(=O)N2CCCCC2)NC(=O)[C@H](Cc2ccccc2)N(C)C(=O)[C@H](CC(C)C)NC(=O)CN(C)C(=O)[C@H]([C@@H](C)O)NC(=O)[C@H](C)N(C)C(=O)[C@H](C(C)C)N(C)C1=O` [DP-118] ([NMeβAla][NMeL]I[NMeV][NMeA]T[Sar]L[NMeF]D-Piperidide; lactam N-10) are 14 ×10⁻⁶ cm/s and 79 µL/min/mg.
Consider `CC(C)C[C@@H]1NC(=O)[C@H](CC(C)C)N(C)C(=O)[C@H](CC(C)C)N(C)C(=O)[C@H](CC(C)C)NC(=O)[C@H](Cc2ccccc2)N(C)C(=O)[C@H](CCS(C)(=O)=O)NC(=O)[C@H](CC(C)C)N(C)C(=O)[C@H](Cc2ccccc2)NC(=O)[C@H](C)NC(=O)C[C@@H](C(=O)N(C)[C@@H](Cc2ccccc2)C(=O)N[C@@H](C)C(=O)N2CCCCC2)NC1=O` [DP-607] (AF[NMeL][Met(O2)][NMeF]L[NMeL][NMeL]LD[NMeF]A-Piperidide; lactam N-10), for which, in data set [1] (setting [3]), the Papp at 18 hours, 50 µM was determined as 1.2 ×10⁻⁶ cm/s. In addition, the microsomal CLint at 1 uM in data set [2] (setting [4]) amounted to 2 µL/min/mg.
The like results for `CC[C@H](C)[C@H]1C(=O)N[C@@H](CC(C)C)C(=O)N(C)[C@@H](CC(C)C)C(=O)N[C@H](C(=O)N2CCCCC2)CC(=O)N(C)CCCC(=O)N(C)[C@@H](CC(C)C)C(=O)N[C@@H]([C@@H](C)O)C(=O)N(C)[C@@H](C)C(=O)N[C@@H](C)C(=O)N(C)[C@@H](Cc2ccccc2)C(=O)N(C)[C@@H](Cc2ccccc2)C(=O)N1C` [DP-249] ([NMeGABA][NMeL]T[NMeA]A[NMeF][NMeF][NMeI]L[NMeL]D-Piperidide; lactam N-11) were, in that order, 34 ×10⁻⁶ cm/s and 151 µL/min/mg.
As to `CC[C@H](C)[C@H]1C(=O)N(C)[C@@H](CC(C)C)C(=O)N[C@H](C(=O)N2CCCCC2)CC(=O)N(C)CCCC(=O)N[C@@H]([C@@H](C)O)C(=O)N(C)[C@@H](C)C(=O)N(C)[C@@H](Cc2ccccc2)C(=O)N(C)[C@@H](Cc2ccccc2)C(=O)N(C)[C@@H](CC(C)C)C(=O)NCC(=O)N1C` [DP-262] ([NMeGABA]T[NMeA][NMeF][NMeF][NMeL]G[NMeI][NMeL]D-Piperidide; lactam N-10), the Papp at 18 hours, 50 µM in data set [1] (setting [3]) came to 38 ×10⁻⁶ cm/s. Besides, the microsomal CLint at 1 uM in data set [2] (setting [4]) is 94 µL/min/mg.
